We go through ten molecules from patent US9969732B2, “Tetrahydroisoquinoline estrogen receptor modulators and uses thereof” (Genentech, Inc., priority 2016, dated 2018).

As usually defined, the EC50 is the midpoint of the concentration-response curve.

The experiment deals with T1, ER-alpha (WT) (Homo sapiens, UniProt P03372).
T1 construct: endogenous in cells; host or cells: MCF7 breast cancer cells
T1 sequence (P03372 1-595): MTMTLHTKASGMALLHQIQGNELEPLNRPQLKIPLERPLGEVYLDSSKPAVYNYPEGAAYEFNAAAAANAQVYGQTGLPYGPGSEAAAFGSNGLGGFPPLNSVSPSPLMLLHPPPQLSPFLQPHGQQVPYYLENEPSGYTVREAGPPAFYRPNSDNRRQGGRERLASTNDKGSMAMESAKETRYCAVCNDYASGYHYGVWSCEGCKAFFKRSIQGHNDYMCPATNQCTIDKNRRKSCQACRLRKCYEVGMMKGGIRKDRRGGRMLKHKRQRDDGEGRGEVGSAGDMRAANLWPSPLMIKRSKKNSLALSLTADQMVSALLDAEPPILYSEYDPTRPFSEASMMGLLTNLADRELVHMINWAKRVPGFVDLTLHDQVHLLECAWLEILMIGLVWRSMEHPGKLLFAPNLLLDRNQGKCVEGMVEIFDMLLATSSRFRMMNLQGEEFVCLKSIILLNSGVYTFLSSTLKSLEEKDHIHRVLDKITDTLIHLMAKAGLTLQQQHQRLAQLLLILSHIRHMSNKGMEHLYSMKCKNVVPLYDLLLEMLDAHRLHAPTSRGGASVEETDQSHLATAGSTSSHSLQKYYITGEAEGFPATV
The experiment can be described thus: Breast Cancer Cell ERa High Content Fluorescence Imaging Degradation Assay (MCF7 HCS). The settings on record: MCF7 breast cancer cells, 4 hours incubation; for EC50: inflexion point of curve; for ERalpha (WT) MCF7 HCS (S inf): plateau of the maximal effect, DMSO and Fulvestrant define 0% and 100% changes in ESR1. Type of experiment: cell-based. As to the method: MCF7 breast cancer cells were seeded on day 1 at a density of 10,000 cells per well in 384 well poly-lysine coated tissue culture plate (Greiner #T-3101-4), in 50 μL/well RPMI (phenol red free), 10% FBS (Charcoal stripped), containing L-glutamine. […] Compounds and controls were dispensed using a Labcyte Echo acoustic dispenser to dispense compounds with a predefined serial dilution (1.8×, 10 point, in duplicate) and appropriate backfill and control compounds (final total volume transferred was 417.5 nL and compound dispense volume ranges from 2.5 nL to 417.5 nL; 0.84% DMSO (v/v) final), ultimately producing a concentration range from 0.05 nM to 835 nM. Cell plates were incubated at 37° C., for 4 hours. Fixation and permeabilization were carried out using a Biotek EL406 plate washer and dispenser as follows. Cells were fixed by addition of 15 μL of 16% paraformaldehyde (Electron Microscopy Sciences #15710-S) directly to the 50 μL cell culture medium in each well using the peristaltic pump 5 μL cassette on a Biotek EL406 (final concentration of formaldehyde was 3.7% w/v). Samples were incubated 30 minutes. Well contents was aspirated and 50 μL/well of Phosphate Buffered Saline (PBS) containing 0.5% w/v bovine serum albumen, 0.5% v/v Triton X-100 (Antibody Dilution Buffer) was added to each well. Samples were incubated for 30 minutes. Well contents were aspirated and washed 3 times with 100 μL/well of PBS. Immunofluorescence staining of estrogen receptor alpha (ESR1) was carried out using a Biotek EL406 plate washer and dispenser as follows. The well supernatant was aspirated from the wells and 25 μL/well of anti-ESR1 mAb (F10) (Santa Cruz sc-8002) diluted 1:1000 in Antibody Dilution Buffer was dispensed. Samples were incubated for 2 hours at room temperature. Samples were washed 4 times with 100 μL/well of PBS. 25 μL (microliters)/well of secondary antibody solution (Alexafluor® 488 conjugate anti-mouse IgG (LifeTechnologies #A21202) diluted 1:1000 and Hoechst 33342 1 μg/mL diluted in Antibody Dilution Buffer) were dispensed into each well. Samples were incubated for 2 hours at room temperature. Samples were washed 3 times with 100 μL/well of PBS using a Biotek EL406. Quantitative fluorescence imaging of ESR1 was carried out using a Cellomics Arrayscan V® (Thermo). Fluorescence images of the samples (Channel 1: XF53 Hoechst (DNA stain); Channel 2: XF53 FITC (ESR1 stain)) were acquired using a Cellomics VTI Arrayscan using the Bioapplication “Compartmental Analysis” using the auto-exposure (based on DMSO control wells) setting “peak target percentile” set to 25% target saturation for both channels. Channel 1 (DNA stain) was used to define the nuclear region (Circ). Measurements of “Mean_CircAvgIntCh2”, which is the Alexafluor 488 fluorescence intensity (ESR1) within the nuclear region, was measured on a per cell basis and averaged over all the measured cells. Data analysis was carried out using Genedata Screener Software, with DMSO and 5 nM Fulvestrant treated samples being used to define the 0% and 100% changes in ESR1. The “Robust Fit” method was used to define the inflexion point of curve (EC50) and the plateau of the maximal effect (Sinf).

`C[C@@]1(c2ccc(OCCN3CC(CF)C3)cc2)c2ccc(O)cc2CCN1CC(F)(F)F` [Example 113, (1R)-1-[4-[2-[3-(fluoromethyl)azetidin-1-yl]ethoxy]phenyl]-1-methyl-2-(2,2,2-trifluoroethyl)-3,4-dihydroisoquinolin-6-ol]: the EC50 amounted to 0.0608 nM and the “ERalpha (WT) MCF7 HCS (S inf)” value is −99%.

Take `C[C@@H]1Cc2cc(O)ccc2[C@H](c2ccc(OCCN3CC(CF)C3)cc2)N1S(C)(=O)=O` [Example 114, (1S,3R)-1-[4-[2-[3-(fluoromethyl)azetidin-1-yl]ethoxy]phenyl]-3-methyl-2-methylsulfonyl-3,4-dihydro-1H-isoquinolin-6-ol]: the concentration giving a half-maximal response (EC50) is ≥ 100 nM. For the molecule `C[C@H]1Cc2cc(O)ccc2[C@@H](c2ccc(OCCN3CC(CF)C3)cc2)N1S(C)(=O)=O` [Example 115, (1R,3S)-1-[4-[2-[3-(fluoromethyl)azetidin-1-yl]ethoxy]phenyl]-3-methyl-2-methylsulfonyl-3,4-dihydro-1H-isoquinolin-6-ol], the EC50 is 61.4 nM and the “ERalpha (WT) MCF7 HCS (S inf)” value is −53%. On to `C[C@@H]1Cc2cc(O)ccc2[C@@H](c2ccc(OCCN3CC(CF)C3)cc2)N1S(C)(=O)=O` [Example 116, (1R,3R)-1-[4-[2-[3-(fluoromethyl)azetidin-1-yl]ethoxy]phenyl]-3-methyl-2-methylsulfonyl-3,4-dihydro-1H-isoquinolin-6-ol], for which the EC50 is 0.3 nM and the “ERalpha (WT) MCF7 HCS (S inf)” value is recorded as −93%. As to `C[C@H]1Cc2cc(O)ccc2[C@H](c2ccc(OCCN3CC(CF)C3)cc2)N1S(C)(=O)=O` [Example 117, (1S,3S)-1-[4-[2-[3-(fluoromethyl)azetidin-1-yl]ethoxy]phenyl]-3-methyl-2-methylsulfonyl-3,4-dihydro-1H-isoquinolin-6-ol], the EC50 was ≥ 100 nM.

With `C[C@@H]1CN(S(C)(=O)=O)[C@H](c2ccc(OCCN3CC(CF)C3)cc2)c2ccc(O)cc21` [Example 120, (1R,4S)-1-[4-[2-[3-(fluoromethyl)azetidin-1-yl]ethoxy]phenyl]-4-methyl-2-methylsulfonyl-3,4-dihydro-1H-isoquinolin-6-ol], the EC50 worked out at 25.9 nM and the “ERalpha (WT) MCF7 HCS (S inf)” value is given as −60%. On to `C[C@H]1CN(S(C)(=O)=O)[C@H](c2ccc(OCCN3CC(CF)C3)cc2)c2ccc(O)cc21` [Example 121, (1R,4R)-1-[4-[2-[3-(fluoromethyl)azetidin-1-yl]ethoxy]phenyl]-4-methyl-2-methylsulfonyl-3,4-dihydro-1H-isoquinolin-6-ol], for which it took 18.1 nM to reach a half-maximal effect (EC50) and the “ERalpha (WT) MCF7 HCS (S inf)” value is −70%. `CC1Cc2c(ccc3c2cnn3CC(C)(C)F)C(c2c(F)cc(OCCN3CC(CF)C3)cc2F)N1CC(C)(C)F` (stereo not drawn) [Example 122, 6-(2,6-difluoro-4-(2-(3-(fluoromethyl)azetidin-1-yl)ethoxy)phenyl)-3,7-bis(2-fluoro-2-methylpropyl)-8-methyl-6,7,8,9-tetrahydro-3H-pyrazolo[4,3-f]isoquinoline]: the EC50 worked out at 25.2 nM and the “ERalpha (WT) MCF7 HCS (S inf)” value is recorded as −62%. As for `C[C@@H]1CCN(CCOc2ccc([C@@]3(C)c4ccc(O)cc4CCN3CC(C)(C)F)cc2)C1` [Example 125, (S)-2-(2-fluoro-2-methylpropyl)-1-methyl-1-(4-(2-((R)-3-methylpyrrolidin-1-yl)ethoxy)phenyl)-1,2,3,4-tetrahydroisoquinolin-6-ol], the EC50 is 7.4 nM and the “ERalpha (WT) MCF7 HCS (S inf)” value is reported as −57%. With `C[C@@H]1CCN(CCOc2ccc([C@]3(C)c4ccc(O)cc4CCN3CC(C)(C)F)cc2)C1` [Example 126, (R)-2-(2-fluoro-2-methylpropyl)-1-methyl-1-(4-(2-((R)-3-methylpyrrolidin-1-yl)ethoxy)phenyl)-1,2,3,4-tetrahydroisoquinolin-6-ol], the 50% effective concentration (EC50) was determined as 0.24 nM and the “ERalpha (WT) MCF7 HCS (S inf)” value is listed as −68%.
